Test results from publication PMC10205807, “Cross-species comparison in nonclinical pharmacokinetics of lenvatinib by a simple HPLC with ultraviolet detection” (Scientific Reports, 2023).

Columns and labels:
plasma protein = assay: in vitro plasma protein binding, dogs; format: in vitro ADME
[1] = PK study in monkeys (intravenous and oral); format: in vivo, cynomolgus monkeys
Procedure: Male cynomolgus monkeys were supplied from Prestasi Fauna Nusantara Ltd. (Jakarta, Indonesia) and were housed at Shin Nippon Biomedical Laboratories, Ltd. The PK study was performed in a cross-over design with 7 days interval between the doses for monkeys aged 3–4 years old. Monkeys were fasted a day before the PK study and feeding was resumed 4 h postdose. Dosing solution of lenvatinib used was the same as that in the other animal PK studies. Lenvatinib was intravenously administered at the dose of 3 mg/kg via cephalic vein. In oral administration, lenvatinib at 3 mg/kg was dosed by using a nasogastric catheter, followed by giving 30 mL of water to flush the remaining dosing solution in the catheter. The number of monkeys at each dose was four. Approximately 0.5 mL of blood samples were serially collected from the femoral vein using a heparinized syringe at pre-dose, and at 5, 15 and 30 min, and 1, 2, 4, 6, 8, 12 and 24 h post-dose. Plasma sample preparation and sample storage were the same as those in the other PK studies.
PK parameters of lenvatinib were estimated by model independent analysis using a WinNonlin program (Version 4.1, Pharsight Corporation, Mountain View, CA). The time to reach the maximum plasma concentration (Tmax) and the maximum plasma concentration (Cmax) values were obtained directly from the plasma concentration data. Terminal half-life (T1/2) was calculated by ln2/ke, where ke is the slope of the regression line that fits the portion of the terminal phase (at least three time points) in the log-linear concentration–time curve. AUC0–t and AUMC0–t, the area under the concentration–time curves and the area under the first moment curve, from time = zero to time = t, respectively, were calculated using the lenvatinib concentrations in plasma by the linear/log trapezoidal method. AUC0–inf was calculated by AUC0–t + Ct/ke, and AUMC0–inf was AUMC0–t + Ct × t/ke + Ct/(ke)^2, where Ct is the last measurable concentration at time = t. The plasma concentration at time zero for the intravenous dose was extrapolated, while zero was used for the oral doses. Mean residence time (MRT), total plasma clearance (CLtot) and the volume of distribution at steady state (Vdss) were calculated by AUMC0–inf/AUC0–inf, Dose/AUC0–inf and CLtot × MRT, respectively. Oral bioavailability (F) was estimated by comparing dose-normalized AUC0–inf after oral (AUC0–inf.po) and intravenous (AUC0–inf.iv) administration as follows: F (%) = (AUC0–inf.po/AUC0–inf.iv) × 100.

[2] = Stability of lenvatinib in dog plasma and processed samples; format: physicochemical, dogs; details: dog plasma; for Freeze/thaw stability, mean percentage bias from the theoretical values: 3 cycles
Procedure: Calibration samples and QC samples for the reproducibility assessment were prepared by spiking 0.05 mL of the working standard solutions to blank plasma (0.05 mL), and QC samples for the stability assessment were prepared by fortifying 0.05 mL of the solution to 1.5 mL of bank plasma. Lenvatinib concentrations in plasma were 0.005, 0.01, 0.03, 0.1, 0.3, 1, 3, 10, 30, and 100 μg/mL for the calibration samples, and were 0.005, 0.01, 1, and 100 μg/mL for the QC samples for reproducibility assessment. Lenvatinib concentrations of QC samples for the stability assessment were 0.01, 1, and 80 μg/mL.
The developed method for the determination of lenvatinib concentrations in plasma was validated and the following validation parameters including linearity, selectivity, intra- and inter-batch reproducibility, extraction recovery, and stability were evaluated in accordance with the bioanalytical guidelines by United States Food and Drug Administration (US-FDA)[7]. […] In the linearity assessment, accuracy of each calibration sample was determined to ensure that relative error (RE) at each concentration was within ± 15% (within ± 20% at the LLOQ). […] Intra-batch accuracy and precision were evaluated using QC samples at the four concentrations, LLOQ, low QC (LQC), mid QC (MQC), and ULOQ. […] Inter-batch accuracy and precision were evaluated by testing a single sample at each concentration across five batches (n = 5 in total). […] Extraction recoveries of lenvatinib and the IS from plasma samples of the four species were evaluated. The recoveries of lenvatinib at the low, mid, and high QC levels (triplicates per concentration), and that of the IS (0.5 μg/mL) were determined. […] Stability of lenvatinib in plasma and processed samples was assessed at the low and high QC levels. Lenvatinib concentrations in samples after storage were compared to the theoretical concentrations and RE values were calculated. […] Freeze–thaw stability in plasma was evaluated up to three freeze–thaw cycles and frozen stability in plasma was evaluated at − 15 °C or below for 4 weeks (mice, rats, and dogs) or 6 weeks (monkeys). […]

[3] = male, cynomolgus monkey, plasma, intravenous 3 mg/kg
[4] = male, cynomolgus monkey, plasma, oral 3 mg/kg
[5] = male, cynomolgus, cynomolgus monkey, plasma, oral 3 mg/kg

fraction unbound at 0.3 μg/mL (plasma protein; dog plasma, 0.3 μg/mL): 0.084 | fraction unbound (plasma protein; dog, plasma, dogs, 0.3–30 μg/mL, read-out: average fp (unbound fraction in plasma)): 0.089 | CLint (hepatic intrinsic clearance) ([1]; estimated from oral PK, Fa and Fg assumed unity, BW 5 kg): 37,063 mL/h | MRT [1, 3]: 3.32 ± 0.15 h | half-life [1, 3]: 4.28 ± 0.34 h | Cmax [1, 4]: 2500 ± 450 ng/mL | MRT [1, 4]: 4.23 ± 0.31 h | Tmax ([1]; male, cynomolgus monkey, plasma, oral 3 mg/kg, median (range)): 2 h | AUC(0-inf) ([1]; male, cynomolgus, cynomolgus monkey, plasma, intravenous 3 mg/kg): 12900 ± 1060 ng·h/mL | C0 ([1]; male, cynomolgus, cynomolgus monkey, plasma, intravenous 3 mg/kg, extrapolated): 5170 ± 949 ng/mL | clearance ([1]; male, cynomolgus, cynomolgus monkey, plasma, intravenous 3 mg/kg, read-out: CLtot (converted)): 3.97 mL/min/kg | Vd ([1]; male, cynomolgus, cynomolgus monkey, plasma, intravenous 3 mg/kg, read-out: Vdss): 0.794 ± 0.0882 L/kg | AUC(0-inf) [1, 5]: 10300 ± 1510 ng·h/mL | half-life [1, 5]: 4.07 ± 0.29 h | bioavailability ([1]; male, cynomolgus, cynomolgus monkey, plasma, oral 3 mg/kg vs intravenous 3 mg/kg, read-out: F (oral bioavailability)): 78.4 ± 5.4% | Freeze/thaw stability, mean percentage bias from the theoretical values ([2]; HQC 80 μg/mL): 0.6% | Freeze/thaw stability, mean percentage bias from the theoretical values ([2]; MQC 1 μg/mL): 1.5% | Frozen stability, mean percentage bias from the theoretical values ([2]; below − 15 °C, 4 weeks, HQC 80 μg/mL): 3.1%
SMILES: COc1cc2nccc(Oc3ccc(NC(=O)NC4CC4)c(Cl)c3)c2cc1C(N)=O [lenvatinib, Lenvatinib]
